# Numbered stars: 1 amine (or outer) side, 2 acyl side, 3 side chain; on linkers, the order of the positions; unused ones are H or OH. Square brackets hold non-standard residues; d marks the D form. Peptide text beside a SMILES is read from it. ξ: configuration not given here. X1 = CC(=O)OC(C)(C)C[C@@H](C(=O)[*:2])N(C)[*:1]; ξNMeBmt = C/C=C/C[C@@H](C)[C@@H](O)C(NC)C(=O)O; dNMeL = CN[C@H](CC(C)C)C(=O)O; dNMeV = CN[C@@H](C(=O)O)C(C)C; dAbu = CC[C@@H](N)C(=O)O; Sar = CNCC(=O)O
# Columns and labels:
# IL-2 = assay: T Cell stimulation (IL-2) in Jurkat cells with anti-CD3 and anti-CD28 co-stimulation; type: cell-based; conditions: Homo sapiens, supernatant after 6 hours
# Description: Compounds of formula (I) were tested for their T Cell stimulation (IL-2) in Jurkat cells with anti-CD3 and anti-CD28 co-stimulation. […] All compounds to be tested were dissolved in dimethyl sulfoxide. Cytotoxicity was evaluated with parallel Alamar Blue plates. Jurkat cells were seeded at 2×10^5 cells per well in 190 μL growth media in a 96-well plate. Cells were cultured in RPMI 1640 medium, 10% fetal bovine serum, and L-Glutamine with incubation at 37° C. with 5% carbon dioxide. After 1 hour of incubation the cells were stimulated with immobilized anti-CD3 (0.4 μg/well), anti-CD28 soluble (2 μg/mL). After 6 hours the sample supernatants were harvested and stored at −80° C. 50 μL samples of supernatant were tested for IL-2 using a Luminex® 1-plex assay.
# [1] = tested on: Mitochondria prepared from rat livers; assay: Mitochondrial permeability transition (Ca2+-induced mitochondrial swelling); type: biochemical; conditions: rat liver mitochondria, swelling induced by 150 micro molar Ca2+, compounds added 5 minutes before; read-out: MPT EC50 (inhibition of mitochondrial swelling)
# Description: Mitochondrial permeability transition (MPT) was determined by measuring swelling of the mitochondria induced by Ca^2+. The procedure was adapted from the method described by Blattner et al., 2001, Analytical Biochem., 295: 220. Mitochondria were prepared from rat livers, which had been perfused with phosphate-buffered saline (PBS) to remove blood, using standard methods that utilized gentle homogenization in sucrose based buffer and then differential centrifugation to first remove cellular debris and then to pellet the mitochondria. Swelling was induced by 150 micro molar Ca^2+ (added from a concentrated solution of Calcium chloride) and was monitored by measuring the scattering at 535-540 nm. Representative compounds were added 5 minutes before swelling was induced. EC50 were determined by comparing swelling with and without the compounds of formula (I).
Compound,EC50 (IL-2) [µM],EC50 [1] [µM]
"C/C=C/C[C@@H](C)[C@@H](O)C1C(=O)N[C@H](CC)C(=O)N(C)CC(=O)N(C)[C@@H](CC(C)(C)OC(C)=O)C(=O)N[C@H](C(C)C)C(=O)N(C)[C@H](CC(C)C)C(=O)N[C@H](C)C(=O)N[C@@H](C)C(=O)N(C)[C@H](CC(C)C)C(=O)N(C)[C@H](CC(C)C)C(=O)N(C)[C@H](C(C)C)C(=O)N1C (some centres unmarked) [Compound E, [4′-acetoxy-N-methylleucine]^4cyclosporine A] (cyclo(A[dNMeL][dNMeL][dNMeV][ξNMeBmt][dAbu][Sar][X1][dV][dNMeL][dA]))",< 0.01,–
[4′-hydroxy-N-methylleucine]^4cyclosporine A S-benzyl-4′-thiocarbonate [Compound X],–,> 30

# From patent US8536114B2, “Macrocycles” (Scynexis, Inc., priority 2008, dated 2013)
